Laboratory results taken from US7150974B1, “Parathyroid hormone receptor binding method” (The General Hospital Corporation, priority 1991, dated 2006).

Assays:
Type in all cases: cell-based
[1] = molecular target: T1, opossum kidney PTH/PTHrP receptor clone, OK-H (Didelphis virginiana, UniProt P25107, I132F/S86P); assay: cAMP accumulation, COS cells expressing OK-H; details: FIG. 16
T1 construct: expressed in transfected cells; host or cells: COS cells, transient, plasmid OK-H (pcDNA I)
Procedure: Intracellular cAMP accumulation was measured as described previously (Abou-Samra et al., J. Biol. Chem. 262:1129, 1986). Cells in 24-well plates were rinsed with culture medium containing 0.1% BSA and 2 mM IBMX. The cells were then incubated with PTH or PTHrP for 15 min. at 37° C. The supernatant was removed and the cells immediately frozen by placing the whole plate in dry ice powder. Intracellular cAMP was extracted by thawing the cells in 1 ml of 50 mM HCl and analyzed by a specific radioimmunoassay using an anti-cAMP antibody (e.g., Sigma, St. Louis, Mo.). A cAMP analog (2′-O-monosuccinyl-adenosine 3′:5′-cyclic monophosphate tyrosyl methyl ester, obtained from Sigma) which was used a tracer for cAMP was iodinated by the chloramine T method. Free iodine was removed by adsorbing the iodinated cAMP analog onto a C18 Sep-pak cartridge (Waters, Milford, Mass.). After washing with dH2O, the iodinated cAMP analog was eluted from the Sep-pak Cartridge with 40% acetonitrille (ACN) and 0.1% trifluoroacetic acid (TFA). The iodinated cAMP analog was lyophilized, reconstituted in 1 ml 0.1% TFA, and injected into a C18 reverse phase HPLC column (Waters). […] The supernatant was removed and the bound radioactivity was counted in a γ-counter (Micromedic). Standard curves were calculated using the four-parameter RIA program supplied by Micromedic. […]

[2] = molecular target: T2, rat bone PTH/PTHrP receptor (Rattus norvegicus, UniProt P25961, E586G); assay: Intracellular free calcium, COS-7 cells expressing R15B; details: COS-7 cells expressing rat receptor
T2 construct: expressed in transfected cells; host or cells: COS / COS-7 cells, transient, plasmid R15B (pcDNA I)
T2 sequence (P25961 27-591 E586G): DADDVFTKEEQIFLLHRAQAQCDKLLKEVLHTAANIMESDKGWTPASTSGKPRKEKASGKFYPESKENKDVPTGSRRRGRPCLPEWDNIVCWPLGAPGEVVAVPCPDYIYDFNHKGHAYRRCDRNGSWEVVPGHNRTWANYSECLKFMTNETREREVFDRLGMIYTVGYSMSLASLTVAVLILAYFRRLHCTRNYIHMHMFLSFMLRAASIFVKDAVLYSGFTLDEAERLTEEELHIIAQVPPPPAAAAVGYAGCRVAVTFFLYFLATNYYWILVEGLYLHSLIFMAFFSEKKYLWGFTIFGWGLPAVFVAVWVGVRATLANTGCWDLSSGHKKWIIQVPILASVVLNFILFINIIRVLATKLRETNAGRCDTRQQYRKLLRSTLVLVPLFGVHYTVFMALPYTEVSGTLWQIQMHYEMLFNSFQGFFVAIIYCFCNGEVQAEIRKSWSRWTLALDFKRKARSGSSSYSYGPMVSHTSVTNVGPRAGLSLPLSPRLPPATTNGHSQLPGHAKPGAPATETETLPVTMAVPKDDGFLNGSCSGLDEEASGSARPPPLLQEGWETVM
Procedure: Details of the methodology are:
Coverslips plated with COS cells were incubated in Fura-2 AM loading buffer containing, in mM: HEPES (N-[2-Hydroxyethyl]piperazine-N′-[2-ethanesulfonic acid]), 20; CaCl2, 1; KCl 5; NaCl, 145; MgSO4, 0.5; NaHCO3, 25; K2HPO4, 1.4; glucose, 10; and Fura-2 AM 91-(2-5′-carboxyoxazol-2′-yl)-6-aminobenzofuran-5oxy-(2′-amino-5′-methylphenoxy)ethane-N,N,N′,N′-tetraaecetic acid acetomethoxy ester), 0.5; at 37° C. at pH7.4, aerated with 95% air and 5% CO2 for 45 minutes. Cells loaded with Fura-2 AM were then washed with a modified Krebs-Heinseleit (KH) buffer containing, in mM: HEPES, 20; CaCl2, 1; KCl, 5; NaCl, 145; MgSO4, 0.5; Na2HPO4, 1; glucose, 5; pH7.4. To check that cleavage of the ester occurred, the excitation spectra after different times of Fura-2 AM incubation were measured.
To measure fluorescence of individual cells, the cover slips were placed in a microscope tissue chamber (Biophysica Technologies, Inc., MD). The chamber consisted of a shallow, sloped compartment made of Teflon with a silicone rubber seal. The cover slips served as the bottom of the chamber. A heater/cooler ring was encased in the silicone rubber which sealed the coverslip in place.

[3] = molecular target: T3, opossum kidney PTH/PTHrp receptor clone, OK-O (Didelphis virginiana, UniProt P25107, I132F/S86P); assay: Inositol phosphate metabolism, COS cells expressing OK-O; details: FIG. 15, listed as NlePTH
T3 construct: expressed in transfected cells; host or cells: COS cells, transient, plasmid OK-O (pcDNA I)
T3 sequence (P25107 27-585 S86P/I132F): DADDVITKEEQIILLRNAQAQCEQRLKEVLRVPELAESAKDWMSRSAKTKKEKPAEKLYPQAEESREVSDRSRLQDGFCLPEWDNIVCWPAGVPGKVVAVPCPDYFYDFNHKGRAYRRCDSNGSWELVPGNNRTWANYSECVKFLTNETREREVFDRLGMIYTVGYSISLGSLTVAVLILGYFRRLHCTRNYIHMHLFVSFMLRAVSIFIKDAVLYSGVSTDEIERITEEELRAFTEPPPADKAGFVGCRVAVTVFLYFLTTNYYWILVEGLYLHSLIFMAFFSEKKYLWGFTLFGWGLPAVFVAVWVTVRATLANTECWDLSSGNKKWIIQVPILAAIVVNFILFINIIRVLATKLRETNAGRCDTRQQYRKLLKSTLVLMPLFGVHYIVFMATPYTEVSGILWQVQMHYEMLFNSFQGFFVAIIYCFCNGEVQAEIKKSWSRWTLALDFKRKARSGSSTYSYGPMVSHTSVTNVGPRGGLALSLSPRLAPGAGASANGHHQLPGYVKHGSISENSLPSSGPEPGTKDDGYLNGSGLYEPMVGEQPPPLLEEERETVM

T1 sequence (P25107 other isoform, or with tags, fused parts or gaps S86P/I132F): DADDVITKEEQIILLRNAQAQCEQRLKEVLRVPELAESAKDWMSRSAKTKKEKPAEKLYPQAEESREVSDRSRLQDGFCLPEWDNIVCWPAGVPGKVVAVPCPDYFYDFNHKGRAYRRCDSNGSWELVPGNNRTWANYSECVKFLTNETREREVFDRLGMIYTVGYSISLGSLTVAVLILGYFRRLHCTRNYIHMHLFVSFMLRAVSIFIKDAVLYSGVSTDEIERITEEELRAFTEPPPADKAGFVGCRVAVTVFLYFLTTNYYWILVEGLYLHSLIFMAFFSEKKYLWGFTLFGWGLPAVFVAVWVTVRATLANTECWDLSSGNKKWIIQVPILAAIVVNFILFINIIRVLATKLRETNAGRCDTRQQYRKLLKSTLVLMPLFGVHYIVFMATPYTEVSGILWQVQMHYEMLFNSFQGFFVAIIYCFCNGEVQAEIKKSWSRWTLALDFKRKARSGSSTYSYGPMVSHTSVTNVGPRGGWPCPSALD

With [Nle^8,18, Tyr^34]bPTH(1-34)amide the cAMP accumulation [1] was “increase cAMP accumulation”, the “increase in intracellular free calcium, PTH(1-34) compared with PTHrP(1-36)” value [2] was “to the same extent” and the “inositol phosphate metabolism (IP3 and IP2 accumulation)” value [3] was “rapid increase”.
